Experimental data published in BindingDB's records for doi:10.7270/Q2NZ862K (Nmmlsc, 2007).

Molecular target: T1, fMet-Leu-Phe receptor (Homo sapiens, UniProt P21462)
T1 sequence (P21462 whole entry): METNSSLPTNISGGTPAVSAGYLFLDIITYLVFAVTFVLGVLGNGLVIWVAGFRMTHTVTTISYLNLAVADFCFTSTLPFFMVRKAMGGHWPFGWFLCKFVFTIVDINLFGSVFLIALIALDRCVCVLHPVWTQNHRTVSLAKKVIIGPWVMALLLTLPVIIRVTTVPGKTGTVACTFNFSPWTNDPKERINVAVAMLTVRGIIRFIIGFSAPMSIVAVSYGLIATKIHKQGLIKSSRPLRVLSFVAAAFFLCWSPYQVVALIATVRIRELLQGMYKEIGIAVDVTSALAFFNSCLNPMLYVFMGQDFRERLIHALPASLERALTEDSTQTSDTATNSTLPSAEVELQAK
Assay: formyl peptide receptor binders – dose response (AID 519)

SMILES	Ki [µM]
Cc1ccc(C2C(C(=O)c3sc(C)nc3C)C(=O)C(=O)N2CCN2CCOCC2)o1 (stereo unspecified) [3-(2,4-dimethyl-1,3-thiazole-5-carbonyl)-4-hydroxy-2-(5-methylfuran-2-yl)-1-(2-morpholin-4-ylethyl)-2H-pyrrol-5-one]	> 43.7
CCCOc1ccc(C2C(C(=O)c3ccc(C)o3)C(=O)C(=O)N2Cc2cccnc2)cc1 (stereo unspecified) [3-(5-methylfuran-2-yl)carbonyl-4-oxidanyl-2-(4-propoxyphenyl)-1-(pyridin-3-ylmethyl)-2H-pyrrol-5-one]	27.9
COCCN1C(=O)C(=O)C(C(=O)c2ccco2)C1c1cccc(Oc2ccccc2)c1 (stereo unspecified) [3-(furan-2-carbonyl)-4-hydroxy-1-(2-methoxyethyl)-2-(3-phenoxyphenyl)-2H-pyrrol-5-one]	36.7
C=CCOc1cccc(C2C(C(=O)c3ccco3)C(=O)C(=O)N2CCN2CCOCC2)c1 (stereo unspecified) [3-(furan-2-carbonyl)-4-hydroxy-1-(2-morpholin-4-ylethyl)-2-(3-prop-2-enoxyphenyl)-2H-pyrrol-5-one]	> 43.7
O=C1C(=O)N(CCc2ccccc2)C(c2cccnc2)C1C(=O)c1ccco1 (stereo unspecified) [3-(furan-2-carbonyl)-4-hydroxy-1-(2-phenylethyl)-2-pyridin-3-yl-2H-pyrrol-5-one]	> 43.7
CCCOc1ccc(C2C(C(=O)c3ccco3)C(=O)C(=O)N2CCCn2ccnc2)cc1 (stereo unspecified) [3-(furan-2-carbonyl)-4-hydroxy-1-(3-imidazol-1-ylpropyl)-2-(4-propoxyphenyl)-2H-pyrrol-5-one]	> 43.7
COCCCN1C(=O)C(=O)C(C(=O)c2ccco2)C1c1ccccc1 (stereo unspecified) [3-(furan-2-carbonyl)-4-hydroxy-1-(3-methoxypropyl)-2-phenyl-2H-pyrrol-5-one]	9.5
Cc1cc(N2C(=O)C(=O)C(C(=O)c3ccco3)C2c2cccnc2)no1 (stereo unspecified) [3-(furan-2-carbonyl)-4-hydroxy-1-(5-methyl-1,2-oxazol-3-yl)-2-pyridin-3-yl-2H-pyrrol-5-one]	> 43.7
O=C1C(=O)N(CC2CCCO2)C(c2cccnc2)C1C(=O)c1ccco1 (stereo unspecified) [3-(furan-2-carbonyl)-4-hydroxy-1-(oxolan-2-ylmethyl)-2-pyridin-3-yl-2H-pyrrol-5-one]	35.9
COCc1cc(C2C(C(=O)c3ccco3)C(=O)C(=O)N2CCOCCO)ccc1O (stereo unspecified) [3-(furan-2-carbonyl)-4-hydroxy-1-[2-(2-hydroxyethoxy)ethyl]-2-[4-hydroxy-3-(methoxymethyl)phenyl]-2H-pyrrol-5-one]	19.4
COc1cc(C2C(C(=O)c3ccco3)C(=O)C(=O)N2CCc2ccccc2)ccc1O (stereo unspecified) [3-(furan-2-carbonyl)-4-hydroxy-2-(4-hydroxy-3-methoxyphenyl)-1-(2-phenylethyl)-2H-pyrrol-5-one]	> 43.7
C=CCOc1ccc(C2C(C(=O)c3ccco3)C(=O)C(=O)N2Cc2cccnc2)cc1 (stereo unspecified) [3-(furan-2-carbonyl)-4-hydroxy-2-(4-prop-2-enoxyphenyl)-1-(pyridin-3-ylmethyl)-2H-pyrrol-5-one]	6.4
O=C1CCCC(=O)C1C(C#Cc1ccccc1)C1C(=O)CCCC1=O [3-hydroxy-2-[1-(2-hydroxy-6-keto-cyclohexen-1-yl)-3-phenyl-prop-2-ynyl]cyclohex-2-en-1-one]	> 43.7
COC(=O)c1ccc(C2C(C(=O)c3ccc(OC)cc3)C(=O)C(=O)N2Cc2ccco2)cc1 (stereo unspecified) [4-[(3Z)-1-(2-furanylmethyl)-3-[hydroxy-(4-methoxyphenyl)methylidene]-4,5-dioxo-2-pyrrolidinyl]benzoic acid methyl ester]	28.1
COC(=O)c1[nH]c(C)c(C(=O)C2C(=O)C(=O)N(CCN3CCOCC3)C2c2cccnc2)c1C (stereo unspecified) [4-[(E)-hydroxy-[1-[2-(4-morpholinyl)ethyl]-4,5-dioxo-2-(3-pyridinyl)-3-pyrrolidinylidene]methyl]-3,5-dimethyl-1H-pyrrole-2-carboxylic acid methyl ester]	13.6
Cc1ccsc1C1C2C(=O)CC(C)(C)CC2=Nc2ncnn21 (stereo unspecified) [6,6-dimethyl-9-(3-methyl-2-thienyl)-1,5,7,9-tetrahydro-[1,2,4]triazolo[5,1-b]quinazolin-8-one]	8.2
COc1cc(-n2nc(C)c3c2OC(=N)C(C#N)C3c2ccccc2)c(Cl)c(Br)c1O (stereo unspecified) [6-amino-1-(3-bromo-2-chloro-4-hydroxy-5-methoxyphenyl)-3-methyl-4-phenyl-1,4-dihydropyrano[2,3-c]pyrazole-5-carbonitrile]	21.3
CSCCC1c2c(-c3cccs3)n[nH]c2OC(=N)C1C#N (stereo unspecified) [6-azanyl-4-(2-methylsulfanylethyl)-3-thiophen-2-yl-2,4-dihydropyrano[2,3-c]pyrazole-5-carbonitrile]	> 43.7

SMILES	Ki [µM]
Cc1ccc(C2c3c([nH]c(=S)[nH]c3=O)N=C3CC(C)(C)CC(=O)C32)cc1 (stereo unspecified) [8,8-dimethyl-5-(4-methylphenyl)-2-sulfanylidene-5,7,9,10-tetrahydro-1H-pyrimido[4,5-b]quinoline-4,6-dione]	31.4
CC1=C(C(=O)OC(C)C)[C@]2(C(=O)N(CC(N)=O)c3ccccc32)C(C#N)C(=N)O1 (stereo partly drawn) [(3R)-6'-amino-1-(2-amino-2-keto-ethyl)-5'-cyano-2-keto-2'-methyl-spiro[indoline-3,4'-pyran]-3'-carboxylic acid isopropyl ester]	> 43.7
C=CCN1C(=O)C2(c3ccccc31)C(C(=O)c1ccc3c(c1)OCCO3)C(=O)C(=O)N2CCCOC (stereo unspecified) [(4'E)-1-allyl-4'-[2,3-dihydro-1,4-benzodioxin-6-yl(hydroxy)methylene]-1'-(3-methoxypropyl)spiro[indoline-3,5'-pyrrolidine]-2,2',3'-trione]	> 43.7
COc1cc(C2C(C(=O)c3ccc4c(c3)CC(C)O4)C(=O)C(=O)N2CCCn2ccnc2)ccc1O (stereo unspecified) [(4E)-1-(3-imidazol-1-ylpropyl)-5-(3-methoxy-4-oxidanyl-phenyl)-4-[(2-methyl-2,3-dihydro-1-benzofuran-5-yl)-oxidanyl-methylidene]pyrrolidine-2,3-dione]	37.6
COCCCN1C(=O)C(=O)C(C(=O)c2ccc3c(c2)CC(C)O3)C1c1cccnc1 (stereo unspecified) [(4E)-1-(3-methoxypropyl)-4-[(2-methyl-2,3-dihydro-1-benzofuran-5-yl)-oxidanyl-methylidene]-5-pyridin-3-yl-pyrrolidine-2,3-dione]	> 43.7
Cc1ccc(C)c(C(=O)C2C(=O)C(=O)N(CCCn3ccnc3)C2c2ccncc2)c1 (stereo unspecified) [(4E)-4-[(2,5-dimethylphenyl)-hydroxy-methylene]-1-(3-imidazol-1-ylpropyl)-5-(4-pyridyl)pyrrolidine-2,3-quinone]	> 43.7
Cc1nc2c(C)cccn2c1C(=O)C1C(=O)C(=O)N(CCN2CCOCC2)C1c1cccs1 (stereo unspecified) [(4E)-4-[(2,8-dimethyl-3-imidazo[1,2-a]pyridinyl)-hydroxymethylidene]-1-[2-(4-morpholinyl)ethyl]-5-thiophen-2-ylpyrrolidine-2,3-dione]	> 43.7
COc1cccc(C2C(C(=O)c3ccc(OC)c(OC)c3)C(=O)C(=O)N2c2cc(C)on2)c1 (stereo unspecified) [(4E)-4-[(3,4-dimethoxyphenyl)-hydroxy-methylene]-5-(3-methoxyphenyl)-1-(5-methylisoxazol-3-yl)pyrrolidine-2,3-quinone]	> 43.7
COCCCN1C(=O)C(=O)C(C(=O)c2ccc(OC)cc2C)C1c1cccnc1 (stereo unspecified) [(4E)-4-[(4-methoxy-2-methyl-phenyl)-oxidanyl-methylidene]-1-(3-methoxypropyl)-5-pyridin-3-yl-pyrrolidine-2,3-dione]	> 43.7
COCCCN1C(=O)C(=O)C(C(=O)c2ccccc2)C1c1ccc2c(c1)OCO2 (stereo unspecified) [(4E)-5-(1,3-benzodioxol-5-yl)-1-(3-methoxypropyl)-4-[oxidanyl(phenyl)methylidene]pyrrolidine-2,3-dione]	19.4
COc1ccc(C(=O)C2C(=O)C(=O)N(Cc3ccco3)C2c2ccc(OC)cc2OC)cc1 (stereo unspecified) [(4E)-5-(2,4-dimethoxyphenyl)-1-(2-furanylmethyl)-4-[hydroxy-(4-methoxyphenyl)methylidene]pyrrolidine-2,3-dione]	> 43.7
CC1Cc2cc(C(=O)C3C(=O)C(=O)N(CCN4CCOCC4)C3c3ccccc3F)ccc2O1 (stereo unspecified) [(4E)-5-(2-fluorophenyl)-4-[(2-methyl-2,3-dihydro-1-benzofuran-5-yl)-oxidanyl-methylidene]-1-(2-morpholin-4-ylethyl)pyrrolidine-2,3-dione]	> 43.7
Cc1ccc(C(=O)C2C(=O)C(=O)N(c3cc(C)on3)C2c2cccc(Br)c2)cc1 (stereo unspecified) [(4E)-5-(3-bromophenyl)-1-(5-methyl-1,2-oxazol-3-yl)-4-[(4-methylphenyl)-oxidanyl-methylidene]pyrrolidine-2,3-dione]	> 43.7
Cc1cc(N2C(=O)C(=O)C(C(=O)c3ccc(F)cc3)C2c2cccc(Br)c2)no1 (stereo unspecified) [(4E)-5-(3-bromophenyl)-4-[(4-fluorophenyl)-hydroxy-methylene]-1-(5-methylisoxazol-3-yl)pyrrolidine-2,3-quinone]	> 43.7
Cc1ccc(C(=O)C2C(=O)C(=O)N(CC(C)O)C2c2ccc(N(C)C)cc2)cc1 (stereo unspecified) [(4E)-5-[4-(dimethylamino)phenyl]-1-(2-hydroxypropyl)-4-[hydroxy(p-tolyl)methylene]pyrrolidine-2,3-quinone]	> 43.7
CCOc1cccc(C(=O)C2C(=O)C(=O)N(Cc3ccco3)C2c2ccncc2)c1 (stereo unspecified) [(4Z)-1-(2-furfuryl)-4-[hydroxy(m-phenetyl)methylene]-5-(4-pyridyl)pyrrolidine-2,3-quinone]	> 43.7
COc1ccccc1C1C(C(=O)c2ccccc2)C(=O)C(=O)N1CCO (stereo unspecified) [(4Z)-1-(2-hydroxyethyl)-4-[hydroxy(phenyl)methylene]-5-(2-methoxyphenyl)pyrrolidine-2,3-quinone]	12.9
CCOc1ccc(C(=O)C2C(=O)C(=O)N(c3nc(C)c(C)s3)C2c2ccco2)cc1 (stereo unspecified) [(4Z)-1-(4,5-dimethyl-1,3-thiazol-2-yl)-4-[(4-ethoxyphenyl)-hydroxymethylidene]-5-(furan-2-yl)pyrrolidine-2,3-dione]	37.8
